From patent US11890324B2, “Compounds for use in inducing myocardial perfusion recovery” (Epoqe Pharma ApS, priority 2018, dated 2024)
Several values for one entry are separate records, joined by “and”; a condition that tells them apart may be missing. Equal entries are not always repeated. Entries after “also recorded” stand apart in the source; their conditions may differ.

How the values were obtained:
[1] = tested on: coronary (left anterior descending artery, LAD) artery segments; test: Vasodilation of isolated precontracted artery segments (wire myograph), coronary artery; type: cell-based, rat
Method: (§1) Basilar, mesenteric and coronary arteries were isolated immediately and ring artery segments were stored in ice cold PSS buffer before being mounted on 40 μm stainless steel wires in a Multi Wire Myograph System organ bath (model 610M, Danish Myo Technology A/S, Denmark). Each segment was immersed in 37° C. PSS solution, continuously aerated with 5% CO2/95% O2 to maintain pH 7.4. […] One wire was connected to a micrometer screw enabling adjustments of the distance between the wires. The other wire was connected to a force displacement transducer attached to an analogue-digital converter unit (ADInstruments, Chalgrove, UK).
(§2) Measurements of vascular tone were recorded using the data acquisition hardware Power Lab unit (ADInstruments). To ensure optimal conditions for maximal force development, each artery segment was carefully stretched to 90% of the internal circumference that the vessel would have under the passive transmural pressure of 100 mm Hg. Following an equilibration period of approximately 20 min, each segment was exposed twice to KPSS to confirm smooth muscle cell viability and the reproducibility of depolarization-induced contractions.
After 15 min equilibration, a stable precontraction tone (50-80% of the KPSS-induced steady state contraction) was induced in arterial segments by PGF2α (3-10 μM). […]
Vasodilation is expressed as percentage of the remaining precontraction tone induced by PGF2α. […] Active tension was determined by subtracting the passive tension (resting tension in PSS) from the total tension (during KPSS or PGF2α challenge).
(§3) All pharmacological data were analysed using Prism 7.02 (GraphPad Software Inc., San Diego, CA) and given as mean±S.E.M. For all analyses, the data were unweighted and each y value (mean of replicates for each individual experiment) was considered an individual point.
(§4) Differences in pEC50 and Emax values were analysed with paired (animal) t-tests and considered significant as P<0.05.

[2] = tested on: peripheral (mesenteric) artery segments; test: Vasodilation of isolated precontracted artery segments (wire myograph), mesenteric artery; type: cell-based, rat
Method: as §1, §2
(§5) After 15 min equilibration, a stable precontraction tone (50-80% of the KPSS-induced steady state contraction) was induced in arterial segments by PGF2α (3-10 μM).
(§6) Concentration-dependent vasodilatory responses of artery segments were normalized as percentage of precontraction remaining.
(§7) Vasodilation is expressed as percentage of the remaining precontraction tone induced by PGF2α. Vessel wall tension=Force/(vessel wall length), where vessel wall length=2×segment length. Active tension was determined by subtracting the passive tension (resting tension in PSS) from the total tension (during KPSS or PGF2α challenge).
as §3, §4

[3] = tested on: cerebral (basilar) artery segments; test: Vasodilation of isolated precontracted artery segments (wire myograph), basilar artery; type: cell-based, rat
Method: as §1, §2, §5, §6, §7, §3, §4

[4] = tested on: coronary LAD artery segments; test: CGRP-agonist sensibilization: repeated dose-response and artery culture, coronary LAD; type: cell-based, rat
Description: (§8) Artery segments were divided for comparison of the effect of Compound I and CGRP in fresh and cultured artery segments, respectively.

[5] = tested on: mesenteric artery segments; test: CGRP-agonist sensibilization: repeated dose-response and artery culture, mesenteric artery; type: cell-based, rat; conditions: isolated mesenteric artery
Description: as §8

CGRP receptor = biological target: T1, CGRP receptor (Homo sapiens, UniProt O60894+Q16602); conditions: literature (Sheykhzade 2018; Nilsson 2016); cited from earlier work
T1 construct: host or cells: naturally occurring cells, recombinant CGRP receptor expressing cell lines, isolated artery segments (none specified)

[6] = tested on: hypertension in experimental animals; conditions: cited from earlier work
[7] = tested on: rats with acute myocardial infarction (permanent LAD occlusion); test: Rat model of acute myocardial infarction (permanent LAD occlusion), myocardial perfusion imaging by SPECT/CT
Method: Experimental myocardial infarction is induced by LAD ligation in rats. Size of the acute myocardial perfusion defect is determined by myocardial perfusion imaging using SPECT/CT. […] All surviving rats underwent follow-up myocardial perfusion imaging using SPECT/CT 21 days after the infarct to determine the final infarct size.
AMI surgery was conducted using the procedure for permanent LAD occlusion.
The rats were anaesthetized with 4% sevoflurane. Rats were intubated and ventilated (UNO micor-ventilator-O3, Netherlands) and maintained anaesthetized with sevuflorane 2.5% to 4%. Rats were placed on a heated surface during surgery. In the rat's tail vein a 24G intravenous catheter was placed (Vasofix® Safety, Braun, Denmark). Before incision the rats were pain treated subcutaneously with Buprenorphine 0.05 mg/kg. After surgery the rats were paintreated four times the first 24 hours and three times the next 24-72 hours.
After insuring sterile surgical conditions, an incision was made in the skin and a thoracotomy was performed. This was placed at either the third or fourth intercostal space depending on size. The pericardium was identified and opened. After inspection of the heart, the LAD was identified and ligated caudal of its origin with a 5-0 polypropylene suture. The myocardium was visually observed for ischemia. If there was no discoloration of the myocardium, another suture was made until ischemia was confirmed by discoloration of the myocardium. One minute after ligation, the rats were injected intravenously with 99-technetium sestamibi to determine the acute perfusion defect. After injection of sestamibi, suture type vicryl 4-0 was used to close the thoracotomy, muscle layer and skin.
Rats underwent single photon emission computer tomography (SPECT) on the day of the surgery and 21 days post-surgery to determine acute and final perfusion defect size. Imaging was performed on a preclinical SPECT/CT scanner (Mediso Nanoscan, Hungary). The rats were anesthetized with sevuflorane 4% for SPECT-scan to be obtained. On the day of the surgery, the rats were perioperatively injected with 99-technetium Sestamibi (median 106 mBq [99; 116]) as described above. On the 21-days follow-up the rats were anesthetized with sevoflurane 4%. In the rat's tail vein an 24G intravenous catheter was placed (Vasofix® Safety, Braun, Denmark). After the catheter was placed, the rats were injected with 99-tecnetium (median 122 [106; 129]).

[8] = all completers, 21 days after infarct, mean ± SEM
[9] = subgroup with acute perfusion defect < 15%, 21 days, mean ± SEM

T1 sequence (Q16602 23-461): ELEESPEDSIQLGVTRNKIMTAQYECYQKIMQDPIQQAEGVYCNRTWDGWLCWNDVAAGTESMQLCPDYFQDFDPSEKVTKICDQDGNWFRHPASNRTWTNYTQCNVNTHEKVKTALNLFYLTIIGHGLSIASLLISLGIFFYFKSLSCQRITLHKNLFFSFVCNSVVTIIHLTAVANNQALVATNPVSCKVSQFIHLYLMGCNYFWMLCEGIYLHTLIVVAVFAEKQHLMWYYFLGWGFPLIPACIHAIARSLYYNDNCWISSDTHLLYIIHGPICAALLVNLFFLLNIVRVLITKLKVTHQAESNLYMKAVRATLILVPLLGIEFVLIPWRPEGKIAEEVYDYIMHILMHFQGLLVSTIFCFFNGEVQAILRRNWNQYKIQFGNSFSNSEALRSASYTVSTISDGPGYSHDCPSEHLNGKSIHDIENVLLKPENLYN
T1 sequence (O60894 27-148): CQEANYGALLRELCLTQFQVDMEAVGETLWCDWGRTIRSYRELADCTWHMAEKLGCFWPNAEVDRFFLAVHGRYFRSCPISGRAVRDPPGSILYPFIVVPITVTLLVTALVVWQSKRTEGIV

## N-alpha-[2-(2-{2-[(S)-4-Carboxy-4-(17-carboxyheptadecanoylamino)-butyrylamino]-ethoxy}ethoxy)acetyl](Ser1]alpha-human CGRP peptide [Compound I]
[1]; coronary artery
  Vasodilation efficacy compared with CGRP (in words): comparable efficacy; also recorded: not different
[1]; coronary artery segments
  Potency ratio (EC50 CGRP: EC50 Compound 1): ~1
  Vasodilatory potency compared with CGRP (in words): equipotent; also recorded: similar; also recorded: not different
[2]; mesenteric artery
  Potency difference between CGRP and Compound I: 5-10 fold
  Potency ratio (EC50 CGRP: EC50 Compound 1): 0.1-0.2
  Vasodilation efficacy compared with CGRP (in words): comparable efficacy
  Vasodilatory potency compared with CGRP (in words): lower
[2]; peripheral (mesenteric) versus coronary artery
  Potency in peripheral compared with coronary artery (in words): not lower
[3]; basilar artery
  Vasodilation efficacy compared with CGRP (in words): comparable efficacy
  Vasodilatory potency compared with CGRP (in words): lower
[3]; cerebral artery
  Potency difference between CGRP and Compound I: 5-10 fold
  Potency ratio (EC50 CGRP: EC50 Compound 1): 0.1-0.2
[4]
  Effect of repeated cumulative stimulation on potency ratio Compound I/CGRP (in words): does not change the potency ratio
[4]; culture 24 h at 37° C. in absence and presence of 10 nM Compound I
  Effect of artery culture on CGRP-agonist-induced vasodilation (in words): induce sensibilization
[4]; second dose-response curve 90-120 minutes after the first
  Effect of repeated cumulative stimulation on potency (in words): shift in potency towards significant sensitization
[5]
  Potency ratio between Compound I and CGRP after repeated dose-response (in words): maintained
[5]; repeated dose-response and culture
  CGRP-agonist-induced CGRP sensibilization (in words): no CGRP-agonist-induced CGRP sensibilization
CGRP receptor
  In vitro potency lower than that of CGRP: approximately 10 times
[6]
  Effect on hypertension (in words): reversing hypertension and complications of hypertension
[7]; [8]
  Perfusion recovery, %: 55.1±6.6% and 55.1 ± 6.4%
  Perfusion recovery, SRS: 6.5 ± 1 SRS
[7]; rat, in vivo
  Animals surviving the surgery and the 3 weeks recovery period (survival rate): 75%
  Effect on survival rate (in words): tendency (not statistically significant) towards an increased survival rate
  Further rats that died during the 21-days follow-up period: 14%
[7]; [9]
  Perfusion recovery in subgroup, %: 66.2 ± 9.0%
  Perfusion recovery in subgroup, SRS: 3.8 ± 0.6 SRS
[7]; treatment for 3 successive days after experimental AMI, 3 weeks
  Effect on myocardial perfusion recovery (in words): large improvement of myocardial perfusion recovery; also recorded: significant improved recovery of perfusion defect

## N-alpha-[2-(2-{2-[(S)-4-Carboxy-4-(17-carboxyheptadecanoylamino)butyryl-amino]ethoxy}ethoxy)acetyl](Ser1]beta-human CGRP peptide [Compound II]
CGRP receptor
  In vitro potency lower than that of CGRP: approximately 10 times
